Measured values: US20240238237A1, “CONJUGATED LINOLEIC ACID SUPPLEMENTATION FOR DISEASE TREATMENT” (VIRGINIA TECH INTELLECTUAL PROPERTIES, INC., priority 2021, published 2024)
“Also recorded” adds a separate entry of the source.

How the values were obtained:
[1] = system: testes of N2KO and WT mice; assay: Testicular histology (H&E), Example 3; format: in vivo, mouse
Text: At the end of the study, numerous body tissues were taken during necropsy, including testes. […] There appeared to be no effect in WT mice.
At the end of the 12-week feeding study with supplemental CLA, mice were euthanized and necropsied. Testicular tissue was removed from the abdominal cavity and placed in 4% paraformaldehyde overnight. The next day, tissue was dehydrated in 70% ethanol and stored at 4 degrees C. until further processing, which included embedding, sectioning and H&E staining.

[2] = system: WT, PWS (Snord116m+/p−) and PWS-KO (Snord116m−/p−) mice; assay: Indirect calorimetry and home-cage activity (TSE system); format: in vivo, mouse; settings: end of study, TSE metabolic chamber
Procedure: Indirect calorimetry and locomotor activity measurements were performed using a Labmaster Mouse calorimetry and Locomotor system (TSE Systems, Bad Homburg, Germany) in the Metabolism Core Virginia Tech. VO2 consumption and VCO2 production in individual mice were measured using metabolic chambers. Air going into the TSE system was at 20.9% oxygen, 0.05% CO2, and the airflow rate was 0.4 L/min (Airgas, Christiansburg, VA, USA). Data were collected every 15 min. Body composition was measured, as described above, prior to assessment of the animals using the TSE system. A photobeam-based ac-tivity monitoring system detected and recorded ambulatory movements. The results were used to calculate the respiratory exchange ratio (RER) and total energy expenditure/gram lean mass. Energy expenditure (KJ/h) was calculated using the formula VO2×(3.815+(1.232×RER))×4.1868 and normalized to the lean mass determined by NMR. All parameters were measured continuously and simultaneously for 48 h after approximately 20 h of adaptation for single-housed mice. The average values for the last 24-48 h were used for analysis. To calculate hourly activity, the average of two-hour bins of activity from the last 24 h period was plotted. […]

[3] = system: C57Bl/6 WT, PWS, PWS-KO mice and 129v/J mice with a deletion of Nhlh2; assay: Rotarod balance and forward locomotion, Example 2; format: in vivo, mouse; settings: end of 12 week study, regardless of genotype
Procedure: At the end of the 12 week study, mice were acclimated to using a rotarod apparatus (FIG. 15A), for one day with grip tape on the rod, and two days without grip tape, at an acceleration of 2.65%, starting from 0) rpm to a maximum speed of 20 rpm. The average of four trials, spaced at least 5 minutes apart on day 4 of testing were the basis for the experimental result.

[4] = system: WT, PWS (Snord116m+/p−) and PWS-KO (Snord116m−/p−) mice; assay: In vivo plantarflexor torque-frequency and fatigue assays; parameters: species or system mouse
Procedure: The procedures for in vivo muscle testing were recently published. Briefly, at the end of the study, following both running wheel and metabolism measurements, body weight was determined, and mice were anesthetized with isoflurane (VetOne Fluriso, Boise, ID, USA) and placed on the temperature-controlled platform (40° C.) of the contractile apparatus (ASI), as described. The right hindlimb was shaved, hair remover applied (Nair Hair Remover Lotion, Ewing, NJ, USA) for 30 s, cleaned with 2-inch×2-inch gauze and tap water, and swabbed with povidone-iodine (Betadine Solution Swabsticks, Stamford, CT, USA). The knee was clamped so the tibia was 90° to the femur. The foot at 90° to the tibia was secured with clear Transpore surgical tape ([…], St. Paul, MN, USA) to the foot pedal of the Aurora Scientific (ASI: Aurora, ON, Canada) dual-mode servomotor. The mouse tail was taped (M3, St. Paul, MN, USA) loosely to the platform to keep it clear of the foot pedal. In vivo plantarflexor torque-frequency and fatigue assays were determined as described in Hamm et al.. Dynamic Muscle Control (DMC) software controlled the timing and frequency of the stimulations and collection of torque. Peak torque for each muscle contraction was determined using ASI Dynamic Muscle Analysis (DMA) software. Due to the body mass and fat mass reduction of the CLA groups in this study, torque was normalized separately by body mass (g) and the final measure of lean body mass (g).
In vivo plantar-flexor torque-frequency and fatigue curves were analyzed using Graph-Pad Prism 9.2.0. A two-way ANOVA was performed with multiple comparisons across groups. For torque-frequency figures, a nonlinear model was fit using the sigmoidal curve with variable slope.

[5] = system: liver of WT, PWS and PWS-KO mice; assay: Liver histology (H&E); format: in vivo, mouse
Procedure: Tissues were isolated immediately following euthanasia by CO2 asphyxiation and placed into 4% paraformaldehyde, overnight, with rocking at 4° C. The tissues were then rinsed in 70% ethanol and stored in 70% ethanol at 4° C. until processing. The Virginia Tech Veterinary Teaching Hospital at the Virginia-Maryland College of Veterinary Medicine processed the tissues for histology and stained with hematoxylin-eosin stain for microscopy. Representative samples were visualized using a 40× ocular on a Nikon Eclipse 50i micro-scope and captured using an Olympus Q-color3 camera.

[6] = system: C57Bl/6 WT and PWS mice; 129v/J WT and Nhlh2 KO mice; assay: Elevated plus maze anxiety symptoms, Example 2; format: in vivo, mouse
Procedure: Mice were tested, using a pre-post design and an elevated plus maze for anxiety symptoms FIG. 16A. Mice that are anxious generally will spend less time in the open arms, compared to those without anxiety. PWS patients show a number of neurobehavioural traits with the most commonly diagnosed phenotype being anxiety. In this study mice were placed in the middle of a plus-type maze, and entrance, as well as time spent in open or closed arms over a 5 minute period were tested. Mice were tested only once before entering the 12-week feeding stud, and once at the end of the 12-week feeding study. The percent time is reported. The data shown in FIG. 16B-16C show a comparison between pre-week test results, and the two treatment groups for each genotype in the post-week test. As shown in FIGS. 16B and 16C, the percent time in open arms was less for all animals. […] These findings can be translated to treatment of humans with anxiety.

Substance: conjugated linoleic acid [CLA]
- Testicular morphology, WT mice ([1]; 12 weeks CLA diet): no effect; also recorded: normal testicular morphology
- Testicular morphology, N2KO mice ([1]; 12 weeks CLA diet vs control diet): improved testicular morphology
- Sperm in N2KO mice fed the CLA diet ([1]; N2KO, histology): apparent presence of sperm in the epididymis
- Testis size ([1]; effect of diet): not influenced
- Home-cage activity [2]: not significant
- Rotarod balance and forward locomotion [3]: balance and forward locomotion improvement
- Resistance to fatigue ([4]; PWS CLA and PWS-KO CLA vs control diet counterparts): lowered
- Plantarflexor torque output, PWS group ([4]; PWS, normalized to lean body mass): lowered torque output
- Fatigue ([4]; WT and PWS mice on CLA diet vs most other genotypes and treatments): greater fatigue
- Plantarflexor torque output, WT mice ([4]; WT, regardless of normalization method): increased torque output
- Muscle function, overall ([4]; any group, vs WT baseline): not detrimental to muscle function
- Mice with liver steatosis on CLA diet, PWS and PWS-KO ([5]; PWS and PWS-KO): ~50%
- Liver steatosis, PWS-KO mice on CLA diet ([5]; PWS-KO): four of seven
- Liver steatosis, PWS mice on CLA diet ([5]; PWS, two of these mild): five of eight
- Liver steatosis, WT mice on CLA diet ([5]; WT): all liver sections
- Mice with liver steatosis on CLA diet, WT ([5]; WT): 100%
- Percent time in open arms, 129v/J WT and Nhlh2 KO mice ([6]; 12 weeks CLA vs control diet): highly significant improvement
- Percent time in open arms, PWS mice ([6]; C57Bl/6 PWS mice, post-week): numeric improvement
